Data from patent US8802711B2, “TRPV1 antagonists” (AbbVie Inc., priority 2011, dated 2014).
Like-named read-outs stand apart in the source and are kept apart here.

Experiments:
Sprague-Dawley rats [1] = experiment: Rat tail immersion assay (noxious thermosensation); assay type: in vivo; conditions: rat, 100 μmol/kg oral, one hour post dosing, 55° C. water bath, relative to vehicle
Description: (§1) Adult male Sprague-Dawley rats (250-300 g body weight, Charles River Laboratories, Portage, Mich.) were used. Animal handling and experimental protocols were approved by the Institutional Animal Care and Use Committee (IACUC) at Abbott Laboratories. For all surgical procedures, animals were maintained under isoflurane anesthesia (4-5% to induce, 1-3% to maintain), and the incision sites were sterilized using a 10% povidone-iodine solution prior to and after surgeries.
Compounds were tested for their effects on noxious thermosensation using the tail immersion assay. Testing was performed one hour following oral administration of 100 μmol/kg of the compound in 10% ethanol/20% Tween-80/70% PEG-400 (2 mL/kg). Morphine (6 mg/kg) was administered interperitoneally (i.p.) using saline (2 mL/kg) as the vehicle. For testing, a circulating water bath was heated to 55° C. Thirty to sixty minutes post dosing, the rats were handled for a few seconds to calm them down and then cupped with their back against the tester's hand at a slight angle with head facing away from the tester. With rat in one hand and a 0.01 second stopwatch in the other hand, the tail was quickly immersed 6-8 cm in the water bath or to a distance leaving 2-3 cm of tail out of water. The timer was started simultaneously. When the rat flinched or attempted withdrawal, timer was immediately stopped and the rat's tail was quickly removed from water bath. This response latency (in seconds) was recorded. Process was repeated 3 times with 3-4 minutes between readings and the average response latency was calculated.
For a given example, a percent increase in the average response latency (in seconds) for tail withdrawal relative to a vehicle control was determined. % increase=[(tc−tv)/tv]×100%
tc=response latency (in seconds) with oral dosing of compounds
tv=response latency (in seconds) with oral dosing of vehicle
The % increases in tail withdrawal latency relative to vehicle control are divided into the following categories: […]

[2] = target: T1, human TRPV1 receptor (hTRPV1) (Homo sapiens (Human), UniProt Q8NER1); experiment: Acid activation assay (pH 5.0, FLIPR intracellular Ca2+); assay type: cell-based; conditions: 37.5 μM antagonist, percentage of the maximal pH 5.0-induced response remaining, read-out: hTRPV1 H+ (max % remain)
How it was run: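 Antagonism of acid-evoked Ca2+ influx measured by FLIPR Calcium-4 fluorescence after a pH 5.0 DPBS/MES stimulus, with compounds preincubated 3 min over 12 half-log concentrations. Cells: stable hTRPV1-expressing 1321N1 line, dye-loaded 90–120 min in the dark at 25 °C.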

Sprague-Dawley rats [3] = experiment: Rat acute capsaicin-induced flinching behavior; assay type: in vivo; conditions: 100 μmol/kg p.o., percent reduction in number of flinching behaviors
From the text: as §1
Rats were placed in individual observation cages. […] One hour after administration of the test compound, 2.5 μg of capsaicin in a 10 μL solution of 10% ethanol/90% hydroxypropyl-β-cyclodextrin was injected subcutaneously into the dorsal aspect of the right hind paw. The observation cage was then suspended above mirrors in order to facilitate observation. […] The number of flinching behaviors of the injured paw was recorded during the five minute observation period (Gilchrist, H. D.; Allard, B. L.; Simone, D. A.; Enhanced withdrawal responses to heat and mechanical stimuli following intraplantar injection of capsaicin in rats. Pain, 1996, 67, 179-188). The percent reduction in the number of flinching behaviors produced with oral administration of representative compounds of the present invention relative to control-treated animals (% effect) is reported in Table 3.

[4] = target: T1, human TRPV1 receptor (hTRPV1); experiment: Capsaicin activation assay (FLIPR intracellular Ca2+); assay type: cell-based; conditions: inhibition of capsaicin-induced intracellular Ca2+ increase, read-out: hTRPV1 cap IC50
How it was run: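 Antagonism measured as [Ca2+]i fluorescence on FLIPR Tetra: compounds given 3 min ahead of capsaicin, added as 200 nM (4×), to dye-loaded hTRPV1-HEK293 cells. Response taken as baseline-subtracted peak, normalized to the 50 nM capsaicin control; 12-point one-third-log titrations.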

Sprague-Dawley rats [5] = experiment: Sodium iodoacetate-induced knee joint osteoarthritic pain model; assay type: in vivo, rat; conditions: 10 mg/kg p.o., 1 hour after dosing, % return to normalcy of hind limb grip force
From the text: as §1
Unilateral knee joint osteoarthritis was induced in the rats by a single intra-articular (i.a.) injection of sodium iodoacetate (3 mg in 0.05 mL sterile isotonic saline) into the right knee joint cavity under light isoflurane anesthesia using a 26 G needle. […] Pain behavioral assessment of hind limb grip force was conducted by recording the maximum compressive force exerted on the hind limb strain gauge setup, in a commercially available grip force measurement system (Columbus Instruments, Columbus, Ohio), to elicit paw withdrawal. The grip force data was converted to a maximum hindlimb cumulative compressive force (CFmax) (gram force)/kg body weight for each animal. The analgesic effects of test compounds were determined 20 days following the i.a. injection of sodium iodoacetate. The vehicle control group for each compound being tested was assigned 0% whereas the age matched naïve group was assigned as being 100% (normal). The % effect for each dose group was then expressed as % return to normalcy compared to the naïve group. Test compounds were administered orally in 10% ethanol/20% Tween 80/70% polyethylene glycol-400 vehicle at a volume of 2 mL/kg. The assessment of the analgesic effects of test compounds was made 1 hour following oral administration. The assessment of the analgesic effects of test compounds can be made following a single dose or following repeated administration wherein the frequency of dosing is 1 to 2 times daily. The duration of such repeated daily dosing may last for any time greater than one day. A typical duration of repeated daily dosing is about 5 days to about 12 days.

[6] = Table 1, HEK293 cells expressing human TRPV1

T1 sequence (Q8NER1 whole entry): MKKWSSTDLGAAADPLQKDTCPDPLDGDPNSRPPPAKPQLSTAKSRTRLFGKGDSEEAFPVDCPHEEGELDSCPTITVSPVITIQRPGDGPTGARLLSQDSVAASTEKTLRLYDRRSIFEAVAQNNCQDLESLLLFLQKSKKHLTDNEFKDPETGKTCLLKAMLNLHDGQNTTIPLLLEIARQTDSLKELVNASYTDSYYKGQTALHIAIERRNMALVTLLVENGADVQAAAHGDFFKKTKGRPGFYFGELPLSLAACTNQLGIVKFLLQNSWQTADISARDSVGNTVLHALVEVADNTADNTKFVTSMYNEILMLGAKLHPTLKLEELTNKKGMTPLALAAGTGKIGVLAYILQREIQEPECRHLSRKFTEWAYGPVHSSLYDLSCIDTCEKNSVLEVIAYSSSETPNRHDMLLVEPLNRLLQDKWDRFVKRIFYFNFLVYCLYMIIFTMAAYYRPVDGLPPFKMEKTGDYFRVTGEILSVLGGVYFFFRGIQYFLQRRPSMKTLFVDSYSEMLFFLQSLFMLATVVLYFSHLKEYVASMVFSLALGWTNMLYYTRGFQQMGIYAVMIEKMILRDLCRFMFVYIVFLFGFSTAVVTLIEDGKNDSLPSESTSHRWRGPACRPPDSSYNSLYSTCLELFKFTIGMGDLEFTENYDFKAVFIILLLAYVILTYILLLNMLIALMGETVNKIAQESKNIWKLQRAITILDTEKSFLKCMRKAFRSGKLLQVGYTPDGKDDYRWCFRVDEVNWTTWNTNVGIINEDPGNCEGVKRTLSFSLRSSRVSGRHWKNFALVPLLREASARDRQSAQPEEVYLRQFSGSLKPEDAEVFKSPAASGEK

remaining activity at 37.5 µM ([2]; Table 1) [%]	remaining activity at 37.5 µM ([2]; Table 2) [%]	IC50 [4, 6] [nM]	IC50 ([4]; Table 2) [nM]	SMILES	% Increase in tail withdrawal latency (Sprague-Dawley rats [1])	% effect (Sprague-Dawley rats [3]) [%]	% effect (Sprague-Dawley rats [5]) [%]
56	56	13	13	Cn1c(=O)ccc2c(NC(=O)N[C@@H]3CC[C@H](c4ccccc4)C3)cccc21 [Example 51, 1-(1-methyl-2-oxo-1,2-dihydroquinolin-5-yl)-3-((1R,3S)-3-phenylcyclopentyl)urea]	−	30	
44		32		O=C(Nc1cccc2[nH]ncc12)N[C@@H]1CC[C@H](c2ccccc2F)C1 [Example 61, 1-[(1R,3S)-3-(2-fluorophenyl)cyclopentyl]-3-(1H-indazol-4-yl)urea]			34
25		29		O=C(Nc1cccc2[nH]ncc12)N[C@H]1CC[C@H](c2cccc(F)c2)C1 [Example 64, 1-[(1S,3S)-3-(3-fluorophenyl)cyclopentyl]-3-(1H-indazol-4-yl)urea]			48
